From patent publication US11542492B2 (Celgene CAR LLC, priority 2009, dated 2023)

How the values were obtained:
NS3/4A C159S = molecular target: T1, NS3/4A C159S (Hepatitis C virus genotype 1b, UniProt Q9WMX2, C1185S); experiment: Lysine modification using biotinylated covalent probe in cell lysate; format: binding, HCV; conditions: FIG. 10, 1 μM probe, 1h
T1 construct: expressed in transfected cells
Description: The pCI-Neo-FLAG-NS3/4a-WT plasmid was constructed by amplifying the NS3 and 4a sequence from the pFK-I389-luc-ubi-neo-NS3-3′ET vector using Accuprime Pfx (Invitrogen) according to manufacturer's instructions and with primers that added an NheI site and FLAG epitope tag to the 5′ end and an XbaI site to the 3′ end.
The resulting PCR product was then digested with NheI and XbaI and ligated into the same sites of the pCI-Neo vector (Invitrogen). The WT construct was then used as a template for site-directed mutagenesis using the Quickchange II Site-Directed Mutagenesis kit […] and primers containing the K136R or C159S mutations (below).
Lysates were treated with 1 μM of biotinylated covalent probe, XVI-27, for 1h and immunoprecipitated with anti-NS3 antibody (mouse). Immunoblots were probed with streptavidin and anti-NS3 antibody (goat). Successful modification by the covalent probe was assessed and quantified relative to WT NS3.

[1] = molecular target: T2, recombinant human ML-IAPβ (Homo sapiens, UniProt Q96CA5); experiment: Fluorescence polarization competition binding assay, ML-IAPβ; conditions: ML-IAP, 2 h
T2 construct: purchased R&D Systems 818-IA
T2 sequence (Q96CA5 1-280 isoform Q96CA5-2): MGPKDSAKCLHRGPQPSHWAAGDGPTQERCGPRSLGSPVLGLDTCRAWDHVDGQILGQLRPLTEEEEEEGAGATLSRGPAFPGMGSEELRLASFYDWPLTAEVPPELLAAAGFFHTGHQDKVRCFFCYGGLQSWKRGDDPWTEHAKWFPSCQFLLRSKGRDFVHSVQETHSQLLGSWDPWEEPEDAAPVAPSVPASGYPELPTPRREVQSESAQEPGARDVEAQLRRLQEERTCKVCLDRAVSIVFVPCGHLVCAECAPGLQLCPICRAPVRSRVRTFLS
Experimental: (§1) Homogeneous, Fluorescence Polarization, Competition Binding Assay Protocol for Affinity Assessment of Compound Binding to XIAP, cIAP-1 and ML-IAPβ BIR3 Domains
(§2) 1× stocks of recombinant human XIAP; BIR3 domain (895-XB), recombinant human cIAP-1 (818-IA) or recombinant human ML-IAPβ (818-IA) from R&D Systems and Fluorescence Polarization (FP) assay tracer (Atto-647 tagged IAP inhibitor probe compound) were prepared in assay buffer consisting of 25 mM Tris-HCL, pH 7.5 (Sigma), 10 mM […] (Sigma), 1 mM DTT (Fluka) and 0.005% TritonX-100 (Pierce). While IAP protein and tracer equilibrated at ambient temp in the dark (30-60 min), 100× stocks of test compound were prepared in 50% DMSO:H2O, serially diluted and spotted (0.5 µL/well) in duplicate wells of a 384-well, flat bottom, polypropylene, black assay plate (Greiner #781209). […] Competition binding between test compounds and assay tracer was initiated by the addition of 50 µL/well of pre-equilibrated IAP protein and assay tracer. Displacement of the assay tracer was measured in a Synergy plate reader from BioTek (Winooski, Vt.) at λex620/λem680 through a 660 nm half-sized dicroich mirror and S/P polarizing filters every 30 min for 3 hr. (See Huang, X., Journal of Biomolecular Screening 8, 2003). The resulting compound dose response data were fit to a one-site binding Ki model in GraphPad Prism from GraphPad Software (San Diego, Calif.).

XIAP = molecular target: T3, XIAP (Homo sapiens, UniProt P98170); experiment: MALDI mass spectrometric analysis of intact XIAP incubated with compound; format: binding; conditions: 18 hr, 10-fold excess of compound to protein
T3 construct: recombinant human XIAP; BIR3 domain (895-XB)
Experimental: Intact XIAP was incubated for 18 hr at a 10-fold excess of VII-1 to protein. 3ul aliquots of the samples were diluted with 10 ul of 0.1% TFA prior to micro C4 ZipTipping directly onto the MALDI target using Sinapinic acid as the desorption matrix (10 mg/mL in 0.1% TFA:Acetonitrile 50:50).
Intact XIAP was incubated for 18 hr at a 10-fold excess of VII-21 to protein. 3 ul aliquots of the samples were diluted with 10 ul of 0.1% TFA prior to micro C4 ZipTipping directly onto the MALDI target using Sinapinic acid as the desorption matrix (10 mg/mL in 0.1% TFA:Acetonitrile 50:50).

recombinant human cIAP-1 = molecular target: T4, recombinant human cIAP-1 (Homo sapiens, UniProt Q13490); experiment: Fluorescence polarization competition binding assay, cIAP-1; conditions: c-IAP-1, 3 h
T4 construct: purchased R&D Systems 818-IA
Experimental: as §1, §2

[2] = molecular target: T5, recombinant human XIAP; BIR3 domain (Homo sapiens, UniProt P98170); experiment: Fluorescence polarization competition binding assay, XIAP BIR3 domain
T5 construct: recombinant human XIAP; BIR3 domain (895-XB); purchased R&D Systems 895-XB
Experimental: as §1, §2

PI3Kγ = PI3Kγ (Homo sapiens, UniProt P48736); experiment: MALDI MS of intact PI3Kγ incubated with compound; format: binding; conditions: 1 hr, 10-fold excess, 37° C.
Experimental: Intact PI3Kγ was incubated for 1 hr at a 10-fold excess of compound XXII-33 to protein at 37° C. 5 μL aliquots of the samples were diluted with 10 μL of 0.1% TFA prior to micro C4 Ziptipping directly onto the MALDI target plate using sinapinic acid as the desorption matrix (10 mg/mL in 0.1% TFA:Acetonitrile 50:50).

p110β/p85α (PI3Kβ) = molecular target: T6, p110β/p85α (PI3Kβ) (Homo sapiens, UniProt P42338); experiment: HTRF assay, p110β/p85α; format: biochemical; conditions: read-out: PI3Kβ HTRF IC50 Inhibition Designation
T6 construct: purchased Millipore 14-603
Experimental: The mechanics of the assay platform are best described by the vendor (Millipore, Billerica, Mass.) on their website at the following URL: http://www.millipore.com/coa/tech1/74jt4z.
Briefly, Stop solution (Stop A, #33-007 and Stop B, #33-009; 3:1 ratio) and Detection Mix (DMC, #33-015 with DMA, #33-011 and DMB, #33-013; 18:1:1 ratio) were prepared as recommended by the manufacturer ˜2 hrs prior to use. […] Lipid kinase reactions were started with the addition of 5 μL of ATP solution, mixed for 15 sec on a rotary plate shaker and incubated for 15-30 minutes at 25° C. Next, reactions were stopped with a 5 μL addition of Stop solution followed by a 5 μL volume of Detection Mix. […] At the conclusion of each assay, the HTRF ratio from fluorescence emission values for each well was calculated and % Inhibition determined from averaged controls wells. % Inhibition values for each compound re then plotted against inhibitor concentration to estimate IC50 from log [Inhibitor] vs Response, Variable Slope model in GraphPad Prism from GraphPad Software (San Diego, Calif.).

p120γ (PI3Kγ) = molecular target: T7, p120γ (PI3Kγ) (Homo sapiens, UniProt P48736); experiment: HTRF assay, p120γ; format: biochemical; conditions: PI3Kγ; read-out: PI3Kγ HTRF IC50 Inhibition Designation
T7 construct: purchased BPS Bioscience 40625
Method in brief: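 End-point competition-binding HTRF with 1-4 nM enzyme and 10 μM di-C8-PIP2, pre-incubated with compound 30 min at 25° C, then 50 μM ATP for 15-30 min at 25° C. HTRF ratio (665/620 nm) gave % inhibition; IC50 from variable-slope log-dose fit.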

Row | Ki [1] [µM] | mass shift of XIAP (XIAP) [Da] | modification of XIAP (XIAP) | Ki (recombinant human cIAP-1) [µM] | Ki XIAP [2] | SMILES | other results
1 |  |  |  |  |  | C=C[C@H]1C[C@@]1(NC(=O)[C@@H]1CC(Oc2nccc3cc(OC)ccc23)CN1C(=O)[C@H](CCC(=O)N1C[C@@H]2C[C@H]1C(=O)O2)NC(=O)CCCC(=O)NCCCOCCOCCOCCCNC(=O)CCCC[C@@H]1SC[C@@H]2NC(=O)N[C@@H]21)C(=O)NS(=O)(=O)C1CC1 (stereo partly drawn) [XVI-27, N1-((2S)-1-((2S)-2-((1S,2R)-1-(cyclopropylsulfonylcarbamoyl)-2-vinylcyclopropylcarbamoyl)-4-(6-methoxyisoquinolin-1-yloxy)pyrrolidin-1-yl)-1,5-dioxo-5-((1S,4S)-3-oxo-2-oxa-5-azabicyclo[2.2.1]heptan-5-yl)pentan-2-yl)-N5-(15-oxo-19-((3aS,4S,6aR)-2-oxohexahydro-1H-thieno[3,4-d]imidazol-4-yl)-4,7,10-trioxa-14-azanonadecyl)glutaramide] | modification by covalent probe (NS3/4A C159S): modifying NS3/4A C159S
2 | 0.1 to 1 | 417 | complete modification | 0.1 to 1 | 161 nM | C=CC(=O)Nc1cccc(CNC(=O)[C@@H]2CC[C@@H]3CCCC[C@H](NC(=O)[C@H](C)NC)C(=O)N32)c1 [VII-1, (3S,6S,10aS)-N-(3-acrylamidobenzyl)-6-((S)-2-(methylamino)propanamido)-5-oxodecahydropyrrolo[1,2-a]azocine-3-carboxamide] | 
3 | > 10 |  |  | > 10 | > 10,000 nM | C=CC(=O)Nc1cccc(CNC(=O)[C@@H]2CC[C@@H]3CCCC[C@H](NC(=O)[C@H](C)N(C)C(=O)OC(C)(C)C)C(=O)N32)c1 [VII-2] | Ki (XIAP) Inhibition Designation ([2]; XIAP): E (IC50≥10,000 nM)
4 | 1 to 10 | 522 | complete modification | 0.1 to 1 |  | CN[C@@H](C)C(=O)N[C@H]1CCCC[C@H]2CC[C@@H](C(=O)NCc3cccc(NC(=O)[C@H]4CCC(=O)O4)c3)N2C1=O [VII-21] | 
5 |  |  |  |  |  | Nc1ncc(-c2nc(N3CCOCC3)c3sc(CN4CCN(C(=O)C5CC(=O)CC(=O)C5)CC4)cc3n2)cn1 [XXII-33, 5-(4-((2-(2-aminopyrimidin-5-yl)-4-morpholinothieno[3,2-d]pyrimidin-6-yl)methyl)piperazine-1-carbonyl)cyclohexane-1,3-dione] | mass shift of PI3Kγ (PI3Kγ): 492 Da; mass shift of PI3Kγ as percent (PI3Kγ): 90%; modification of PI3Kγ (PI3Kγ): complete modification; IC50 (p110β/p85α (PI3Kβ)): 0.1 to 1 µM; IC50 (p120γ (PI3Kγ)): 0.1 to 1 µM
